Measurements published in US10526327B2, “Histone demethylase inhibitors” (CELGENE QUANTICEL RESEARCH, INC., priority 2013, dated 2020).

Molecular target: T1, JMJD2C (Homo sapiens, UniProt Q9H3R0)
T1 construct: purchased BPS Bioscience 50105
T1 sequence (Q9H3R0 2-372): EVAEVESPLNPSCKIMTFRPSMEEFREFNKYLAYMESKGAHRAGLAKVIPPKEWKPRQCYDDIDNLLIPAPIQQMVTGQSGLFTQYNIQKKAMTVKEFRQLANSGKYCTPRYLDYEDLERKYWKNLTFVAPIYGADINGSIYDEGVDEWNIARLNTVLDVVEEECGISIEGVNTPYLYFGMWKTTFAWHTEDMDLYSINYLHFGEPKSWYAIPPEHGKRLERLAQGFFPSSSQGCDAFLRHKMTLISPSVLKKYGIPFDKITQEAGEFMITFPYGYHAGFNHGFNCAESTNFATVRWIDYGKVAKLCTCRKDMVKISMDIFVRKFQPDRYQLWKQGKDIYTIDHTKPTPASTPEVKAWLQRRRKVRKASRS
Assay: JMJD2C in vitro enzyme inhibition assay (TR-FRET)
Format: biochemical
Excerpt: This assay determines the ability of a test compound to inhibit Jarid1A, Jarid1B, and JMJD2C demethylase activity. Baculovirus expressed Jarid1A (GenBank Accession #NM_001042603, AA1-1090) was purchased from BPS Bioscience (Cat#50110). Baculovirus expressed Jarid1B (GenBank Accession #NM_006618, AA 2-751) was purchased from BPS Bioscience (Cat #50121) or custom made by MolecularThroughput. Baculovirus expressed JMJD2C (GenBank Accession #BC143571, AA 2-372) was purchased from BPS Bioscience (Cat#50105).
The ability of test compounds to inhibit the activity of JMJD2C was determined in 384-well plate format under the following reaction conditions: 0.3 nM JMJD2C, 300 nM H3K9me3-biotin labeled peptide (Anaspec cat #64360), 2 μM alpha-ketoglutaric acid in assay buffer of 50 mM HEPES, pH7.3, 0.005% Brij35, 0.5 mM TCEP, 0.2 mg/ml BSA, 50 μM sodium L-ascorbate, and 2 μM ammonium iron(II) sulfate. Reaction product was determined quantitatively by TR-FRET after the addition of detection reagent Phycolink Streptavidin-allophycocyanin (Prozyme) and Europium-anti-di-methylated histone H3 lysine 9 (H3K9me2) antibody (PerkinElmer) in the presence of 5 mM EDTA in LANCE detection buffer (PerkinElmer) at a final concentration of 50 nM and 1 nM, respectively.
The assay reaction was initiated by the following: 2 μl of the mixture of 900 nM H3K9me3-biotin labeled peptide and 6 μM alpha-ketoglutaric acid with 2 μl of 11-point serial diluted inhibitor in 3% DMSO were added to each well of the plate, followed by the addition of 2 μl of 0.9 nM JMJD2C to initiate the reaction. The reaction mixture was incubated at room temperature for 30 minutes, and terminated by the addition of 6 μl of 5 mM EDTA in LANCE detection buffer containing 100 nM Phycolink Streptavidin-allophycocyanin and 2 nM Europium-anti-H3K9me2 antibody. Plates were read by EnVisionMultilabel Reader in TR-FRET mode (excitation at 320 nm, emission at 615 nm and 665 nm) after 1 hour incubation at room temperature. A ratio was calculated (665/615) for each well and fitted to determine inhibition constant (IC50).

SMILES | IC50 [nM]
Cn1cnc(-c2nccc3c(O)nc(OCC4CCOCC4)nc23)c1 [Example 102, 8-(1-methyl-1H-imidazol-4-yl)-2-(oxan-4-ylmethoxy)pyrido[3,4-d]pyrimidin-4-ol] | ≤ 100
Cn1cnc(-c2nccc3c(O)nc(OCC4CCOC4)nc23)c1 (centres unmarked) [Example 103, 8-(1-methyl-1H-imidazol-4-yl)-2-(oxolan-3-ylmethoxy)pyrido[3,4-d]pyrimidin-4-ol] | ≤ 100
Cn1cnc(-c2nccc3c(O)nc(OCc4cccc(F)c4)nc23)c1 [Example 104, 2-[(3-fluorophenyl)methoxy]-8-(1-methyl-1H-imidazol-4-yl)pyrido[3,4-d]pyrimidin-4-ol] | ≤ 100
Cn1cnc(-c2nccc3c(O)nc(OCc4ccccc4Cl)nc23)c1 [Example 105, 2-[(2-chlorophenyl)methoxy]-8-(1-methyl-1H-imidazol-4-yl)pyrido[3,4-d]pyrimidin-4-ol] | ≤ 100
Cn1cnc(-c2nccc3c(O)nc(OCc4cccc(Cl)c4Cl)nc23)c1 [Example 106, 2-[(2,3-dichlorophenyl)methoxy]-8-(1-methyl-1H-imidazol-4-yl)pyrido[3,4-d]pyrimidin-4-ol] | 100 to 1000
